{"source": "patent US5480645A", "about": "“Hydroxyamines N-acyl derivatives having scavenger activity and useful in acute and chronic pathologies associated with peroxidation and inflammation phenomena” (LifeGroup S.p.A., priority 1992, dated 1996)", "key": {"[1]": {"tested_on": "granular cerebellar cells", "assay": "Protection against 2 mM glutamate cytotoxicity in immature granular cerebellar cell cultures", "details": "Mus musculus, 24 h, read-out: % Cellular survival", "procedure": "The tested compounds are solubilized in DMSO at a concentration of from 1 to 100 μM."}, "[2]": {"tested_on": "C6 glioma cells", "assay": "Protection against 5 mM glutamate cytotoxicity in glioma C6 cultures", "details": "Rattus norvegicus, C6 glioma, 24 h, read-out: % Cell survival"}, "[3]": {"tested_on": "rat liver microsomes (membrane phospholipid peroxidation)", "assay": "Antiperoxidative activity on rat liver microsomes, cumene hydroperoxide induced peroxidation (MDA formation)", "type": "biochemical", "details": "for peroxidation inhibition / MDA: 0.5 mM cumene hydroperoxyde, Table 3; for MDA: control 12.8", "experimental": "b) 20 mM Hepes-Tris buffer pH=7.4, 0.5 mM cumene hydroperoxide in the presence or in the absence of the compounds to be tested. […] Subsequently the incubation is carried out for 15' at 90° C. in order to allow the development of the coloured adduct.\n(§1) A common oxidation product, malonyldialdehyde (MDA), to the two oxidant systems described in (a) and in (b), is measured.\nThe tested compounds are solubilized in the culture medium up to the desired concentrations (see tables 1-3).\nAs peroxidant agent 0.5 mM cumene hydroperoxyde is used. As oxidation index the formation of malonyldialdehyde (MDA) is measured (nmoles/mg protein)."}, "[4]": {"tested_on": "rat liver microsomes (membrane phospholipid peroxidation)", "assay": "Antiperoxidative activity on rat liver microsomes, NADPH/Fe+2/ADP induced peroxidation (MDA formation)", "type": "biochemical", "details": "for peroxidation inhibition / MDA: NADPH/Fe+2/ATP, Table 1-A; for MDA: control 42.5", "experimental": "Before the final resuspension mitochondria ape washed with 0.125M KCl containing 15 mM Hepes/10 mM tris at pH=7.4. Rat liver microsomes are prepared as described by Ernster and Nordenbrand (Ernster, Nordenbrand K. Methods Enzymol. 1967, 10:574-80). […]\nb) 20 mM Hepes-Tris buffer pH=7.4, 0.5 mM cumene hydroperoxide in the presence or in the absence of the compounds to be tested. The trials after incubation are interrupted with 1 ml 35% TCA which 30 mg BHT and 1 ml 1% TBA (thiobarbituric acid) have been added to. Subsequently the incubation is carried out for 15' at 90° C. in order to allow the development of the coloured adduct.\nas §1\nThe formed MDA is evaluated by spectrophotometry at 532 nm and calculated by using a molar extinction coefficient of 156.000 (Buege J. A. and Aust S. D., Methods Enzymol., 52, 302-310, 1978).\nThe tested compounds are solubilized in the culture medium up to the desired concentrations (see tables 1-3). […]\nThe antiperoxidase activity is measured as % of inhibition of malonyldialdehyde formation."}, "[5]": {"assay": "Solubility", "type": "physicochemical"}, "[6]": {"tested_on": "mast cells", "assay": "In vivo antidegranulating activity in rat mast cells (substance P induced)", "parameters": "species or system Sprague Dawley rats", "details": "s.c. 20 mg/kg; substance P 10^-6 M in auricular pinna; substance P effect taken as 100% degranulation", "experimental": "1. In vivo antidegranulating activity in rat mast cells.\nThe pharmacological treatment is preceded (20 min. before) by the degranulating stimulus induced by P substance (10^-6 M) injected in the auricular pinna. After 20 minutes from the degranulating stimulus, the animals are sacrificed. Their tissues are then taken (auricular pavilion) for the morphological aspect analysis of the mast cells residing in the connective tissues after fixation and coloration with toluidine blue.\nThe inhibition level of the mast cells degranulation in the animal tissue treated with the tested compounds in comparison with the animals treated only with the degranulating agent is considered as the parameter of the biological activity.\n*the inhibition percentage is calculated considering that the effect of\nthe substance P is maximum (100% of mast cells degranulation)."}, "[7]": {"tested_on": "rat cerebellar granular cells", "assay": "Protection against glutamate neurotoxicity in rat cerebellar granular cell cultures", "type": "cell-based", "experimental": "Primary cerebellar granular cell cultures are prepared from 8 days old Sprague-Dawly rats. Neurons are grown on 35 mm plates for 7-8 days. […] Glial cells proliferation is prevented by cytosine arabinose-furanoside.\nCells are washed in Locke solution free from Mg^2+ then replated in the conditionned culture medium.\nThe solution is diluted serially up to 10, 20 and 50 μM. The compounds at the desired concentrations are added to the cells at 37 ° C.; after 15' 50 μM glutamate free from Mg^2+ is added For 15 minutes at 22 ° C.\nThe cells are then washed 3 times with Locke solution, then added to the original culture medium and maintained at 37 ° C. in 5 % CO2 for 24 hours.\nThe cellular survival is measured by using a fluorescence microscope."}, "[8]": {"details": "in vitro, 10 to 50 μM dose/effect relationship for the test compound"}}, "data": [{"smiles": "Cc1c(C)c2c(c(C)c1O)CC(CC(=O)NCCO)O2", "note": "(stereo not drawn) [Example 1, 2-(2,3-dihydro-5-hydroxy-4,6,7-trimethylbenzofuran)-acetic acid 2 hydroxyethylamide]", "values": [{"measurement": "viability at 1 µM", "setting": "[1]", "result": 31, "unit": "%"}, {"measurement": "viability at 3 µM", "setting": "[1]", "result": 40, "unit": "%"}, {"measurement": "viability at 10 µM", "setting": "[1]", "result": 94, "unit": "%"}, {"measurement": "viability at 1 µM", "setting": "[2]", "result": 13, "unit": "%"}, {"measurement": "viability at 3 µM", "setting": "[2]", "result": 88, "unit": "%"}, {"measurement": "viability at 10 µM", "setting": "[2]", "result": 89, "unit": "%"}, {"measurement": "peroxidation inhibition", "setting": "[3]; 20 μM", "result": 47, "unit": "%"}, {"measurement": "MDA", "setting": "[3]; 20 μM", "result": 6.84, "unit": "nmoles/mg prot."}, {"measurement": "peroxidation inhibition", "setting": "[3]; 50 μM", "result": 80, "unit": "%"}, {"measurement": "MDA", "setting": "[3]; 50 μM", "result": 2.5, "unit": "nmoles/mg prot."}, {"measurement": "inhibition of the peroxidation induced by cumene peroxide (in words)", "setting": "[3]; [8]", "result": "able to inhibit the peroxidation induced by NADPH/Fe^+2 /ADP (a) and by cumene peroxide (b)"}, {"measurement": "peroxidation inhibition", "setting": "[4]; 10 μM", "result": 21, "unit": "%"}, {"measurement": "MDA", "setting": "[4]; 10 μM", "result": 33.5, "unit": "nmoles/mg prot."}, {"measurement": "peroxidation inhibition", "setting": "[4]; 20 μM", "result": 49, "unit": "%"}, {"measurement": "MDA", "setting": "[4]; 20 μM", "result": 21.3, "unit": "nmoles/mg prot."}, {"measurement": "effect compared with the corresponding acid (in words)", "setting": "[4]; Tab. 1-A and 3 (NADPH/Fe+2/ADP and cumene peroxide)", "result": "consistently higher than that of the comparison product namely the corresponding acid"}, {"measurement": "inhibition of the peroxidation induced by NADPH/Fe+2/ADP (in words)", "setting": "[4]; [8]", "result": "able to inhibit the peroxidation induced by NADPH/Fe^+2 /ADP (a)"}, {"measurement": "solubility", "setting": "[5]; organic solvent or mixture, in ethanol, DMSO, chloroform, read-out: solubility in org. solv.", "result": "> 10000", "unit": "µg/mL"}, {"measurement": "water solubility", "setting": "[5]; water", "result": "slightly soluble"}, {"measurement": "inhibition % (mast cells degranulation induced by substance P)", "setting": "[6]", "result": 19, "unit": "%"}, {"measurement": "viability at 10 µM", "setting": "[7]; Rattus norvegicus, 24 h, 10 μM, against 50 μM glutamate, Table 4, control 100, read-out: cell survival", "result": 33, "unit": "%"}, {"measurement": "viability at 20 µM", "setting": "[7]; Rattus norvegicus, 24 h, 20 μM, against 50 μM glutamate, Table 4, control 100, read-out: cell survival", "result": 50, "unit": "%"}, {"measurement": "viability at 50 µM", "setting": "[7]; Rattus norvegicus, 24 h, 50 μM, against 50 μM glutamate, Table 4, control 100, read-out: cell survival", "result": 85, "unit": "%"}, {"measurement": "protection against glutamate exogenous neurotoxicity (in words)", "setting": "[7]; dose-effect relationship", "result": "able to protect against the glutamate exogenous neurotoxicity"}]}]}
